Each structure is given as a SMILES string.

The source of these data is patent EP2292242B1, “A SCUTELLARIN DERIVATIVE, THE PREPARING PROCESS, THE PHARMACEUTICAL COMPOSITION AND THE USE THEREOF” (Kunming Pharmaceutical Corp., priority 2008, dated 2009).

The subject of data set [1] is focal cerebral ischemia induced by MCAO (middle cerebral artery occlusion) in rats. As to the kind of experiment: focal cerebral ischemia induced by MCAO (middle cerebral artery occlusion) in rats. Particulars: induced by ADP-2Na, final concentration of ADP, turbidimetry; 50mg/kg gavage once daily for 5 days; X±SD. It counts as in vivo, SD rat. The method, then: Male SD rats, weighing 240~290g, grouping and dosages were as above. Additionally, a positive control group, i.e., nimodipine 50mg/kg group was set up. Animals of each group were gavage once daily for consecutive 5 days in predetermined dosage. At 30 minute after the last administration, the animals were anesthetized with 12% chloral hydrate in 350 mg/kg via intraperitoneal injection. The animals were kept left lateral position and the skin was cut along the middle point between right ear and eye line. Temporalis was separated and cheekbone was sheared. A holl was drilled with a dental drill in front of zygomatic root and MCA was exposed. […]
The animals were scored on neurological functions at 6 hour and 24 hour after modeling, according to behavior such as movement. […]
24 hour after modeling and after neurological scoring, blood was taken via carotid artery intubation in duplicate. For one sample, serum was separated and the activity of AST and LDH was determined according to the method of the kit; for another sample, it was treated with 3.8% sodium citrate in 1:9 for the purpose of anticoagulation, centrifuged at 1000rpm for 5 minutes to prepare platelet rich plasma (PRP), and centrifuged at 3500rpm for 10 minutes to prepare platelet poor plasma (PPP). […]

The nature of data set [2]: comparative study on solubilities (China Pharmacopeia 2005 terms). The conditions noted are these: terms per China Pharmacopeia 2005. It counts as physicochemical.
The conditions of data set [3]: background statement; cited from earlier work.

Consider `COCCOC(=O)C1=C(C)NC(C)=C(C(=O)OC(C)C)C1c1cccc([N+](=O)[O-])c1` (stereo not shown) [nimodipine, reference compound], for which the “rate of platelet aggregation” value in data set [1] is on record as 54.15±7.76%.
As to `O=C(O)[C@H]1O[C@@H](Oc2cc3oc(-c4ccc(O)cc4)cc(=O)c3c(O)c2O)[C@H](O)[C@@H](O)[C@@H]1O` [scutellarin], the “solubility in 0.01NNaOH” value in data set [2] (0.01NNaOH) is “soluble”. Besides, the “solubility in 95%EtOH” value in data set [2] (95%EtOH) is reported as “slightly soluble”. The “solubility in H2O” value in data set [2] (H2O) is “very slightly soluble”. Moreover, in data set [2] (MeOH), the “solubility in MeOH” value is “slightly soluble”. The “solubility in n-BuOH” value in data set [2] (n-BuOH) is given as “slightly soluble”. In addition, the solubility in water result in data set [3] is reported as “sparingly soluble”.
